Data set [1] in a line: Hygroscopicity / water uptake of crystalline forms of Example 1. In kind it is physicochemical. Conditions: for hygroscopicity: crystalline form.
The target of data set [2] is T1, human Nav1.5 (Homo sapiens (Human), UniProt Q14524). The data set can be described thus: Qpatch automated patch-clamp, peak Nav1.5 current inhibition, 5-Hz AF-like assay (holding potential -85 mV). The data set is classed as cell-based. Conditions: CHO-K1 cells stably expressing human Nav1.5, holding potential -85 mV, Table 5, read-out: Nav1.5 IC50 (5 Hz, AF Rate). Put shortly:
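CHO-K1 cells stably expressing human Nav1.5, whole-cell automated patch-clamp at room temperature, CsF-based internal. Compounds pre-incubated 3 min each at ascending 0-30 μM; +10 to −85 mV ramp (150 ms) applied at 5 Hz for 12 s from −85 mV holding. IC50 from last-pulse peak current, vehicle-normalized for run-down.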

Data set [3] has as its target T1, human Nav1.5. Put plainly: Qpatch automated patch-clamp, peak Nav1.5 current inhibition, 1 Hz sinus rate, ventricular condition (holding potential -100 mV). The data set is classed as cell-based. The settings on record: CHO-K1 cells stably expressing human Nav1.5, without ATX-II. An excerpt: Electrophysiology was used to measure the ionic currents in isolated living cells using automated patch-clamp recording, performed using an automated patch-clamp machine called Qpatch (Sophion Bioscience). Two different assay conditions were used to identify compounds with atrial-selective potential. The 5-Hz AF-like assay has more depolarized holding potential at −85 mV to mimic atrial resting membrane potential (RMP) and was used to identify compounds of strong rate-dependence. Active, rate-dependent compounds were then screened at 1 Hz (i.e., sinus rate) at the holding potential of −100 mV to mimic the ventricular scenario and help identify compounds with the largest potency separation or attenuation from the 5-Hz AF-like assay. Such compounds have the potential for treating AF without the QRS liability inherent to Class Ic drugs.
The sodium current conducted through a cell (via Nav1.5) or electrical signals were processed through a low-pass filter at 5 KHz, re-digitalized and acquired at 20 kHz. Series resistance was not compensated and leak subtraction was performed.
1 to 3 million Chinese Hamster Ovary cells (also known as CHO-K1) stably expressing human Nav1.5 were seeded into […] culture flasks with 25 mL medium (consisting of Gibco Dulbecco's Modified Eagle Medium as a base medium with 1% MEM non-essential amino acids, 400 μg/mL Geneticin, 5 μg/mL puromycin and 10% fetal bovine serum) 48-72 hours prior to the experiments. On the day of the experiment, cells were washed once with phosphate-buffered saline (also known as PBS; Gibco) detached with Detachin™ (Genlantis), and re-suspended in CHO—S-SFM II media (Gibco) at 200,000 cells/mL. The CHO—S-SFM II was replaced with assay solutions prior to the assays. Whole-cell currents were recorded at room temperature in the whole-cell configuration. The external aqueous assay solution (pH=7.4; Osm=307-315) contained the following (the concentration for each component is expressed in parentheses in mM): NaCl (140 mM), KCl (4 mM), CaCl2) (2 mM), MgCl2 (1 mM), 4-(2-hydroxyethyl)-1-piperazineethanesulfonic acid, also known as HEPES (10 mM), and glucose (5 mM). The internal aqueous assay solution (pH=7.2; Osm=292-295) contained the following (the concentration for each component is expressed in parentheses in mM): CsF (110 mM), CsCl (10 mM), NaCl (10 mM), HEPES (10 mM), and ethylene glycolbis(β-aminoethyl ether)-N,N,N′,N′-tetraacetic acid, also known as EGTA (10 mM).
To assess peak Nav1.5 current inhibition mimicking a ventricular condition at sinus rate with or without ATX-II (Nav1.5 IC50 (1 Hz, ATXII) (μM) or (1 Hz, Sinus Rate) (μM)), compounds were first prepared at 10 mM in DMSO, and cells were pre-incubated with test compounds at each concentration for 3 min. in an ascending order of 0, 0.37, 1.1, 3.3, 10 and 30 uM. In the assay with ATX-II (Alomone Labs), 50 nM ATX-II was included during the 3-min. compound incubation. A square pulse (−10 mV; 400 ms and a holding potential at −100 mV) was run at 1 Hz for 25 s until no further inhibition or Nav1.5 current change was observed. The percent inhibition (expressed as ([Iafter compound treatment/Ibefore compound treatment]×100%) is calculated by normalizing the peak current amplitude at the last pulse of each of the 6 compound concentrations by the amplitude before exposure to the test compound. The compiled data was further normalized by vehicle control (DMSO) to account for Nav1.5 current run-down, and IC50 was calculated by Matlab (MathWorks, USA).
(In general: Patch clamp records ionic current or voltage across a cell membrane.)

Data set [4] deals with T1, human Nav1.5. The data set can be described thus: Qpatch automated patch-clamp, peak Nav1.5 current inhibition, 1 Hz with 50 nM ATX-II (holding potential -100 mV). The settings on record: CHO-K1 cells stably expressing human Nav1.5, read-out: Nav1.5 IC50 (1 Hz, ATXII). The data set is classed as cell-based. In short, it runs like this: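 CHO-K1 cells stably expressing human Nav1.5, whole-cell recording at room temperature; 3-min pre-incubation at 0–30 uM ascending, with or without 50 nM ATX-II. Pulses to −10 mV (400 ms) from −100 mV at 1 Hz for 25 s; last-pulse peak current normalized to pre-compound and DMSO run-down, IC50 fitted.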

Each structure is given as a SMILES string.

T1 sequence (Q14524 whole entry): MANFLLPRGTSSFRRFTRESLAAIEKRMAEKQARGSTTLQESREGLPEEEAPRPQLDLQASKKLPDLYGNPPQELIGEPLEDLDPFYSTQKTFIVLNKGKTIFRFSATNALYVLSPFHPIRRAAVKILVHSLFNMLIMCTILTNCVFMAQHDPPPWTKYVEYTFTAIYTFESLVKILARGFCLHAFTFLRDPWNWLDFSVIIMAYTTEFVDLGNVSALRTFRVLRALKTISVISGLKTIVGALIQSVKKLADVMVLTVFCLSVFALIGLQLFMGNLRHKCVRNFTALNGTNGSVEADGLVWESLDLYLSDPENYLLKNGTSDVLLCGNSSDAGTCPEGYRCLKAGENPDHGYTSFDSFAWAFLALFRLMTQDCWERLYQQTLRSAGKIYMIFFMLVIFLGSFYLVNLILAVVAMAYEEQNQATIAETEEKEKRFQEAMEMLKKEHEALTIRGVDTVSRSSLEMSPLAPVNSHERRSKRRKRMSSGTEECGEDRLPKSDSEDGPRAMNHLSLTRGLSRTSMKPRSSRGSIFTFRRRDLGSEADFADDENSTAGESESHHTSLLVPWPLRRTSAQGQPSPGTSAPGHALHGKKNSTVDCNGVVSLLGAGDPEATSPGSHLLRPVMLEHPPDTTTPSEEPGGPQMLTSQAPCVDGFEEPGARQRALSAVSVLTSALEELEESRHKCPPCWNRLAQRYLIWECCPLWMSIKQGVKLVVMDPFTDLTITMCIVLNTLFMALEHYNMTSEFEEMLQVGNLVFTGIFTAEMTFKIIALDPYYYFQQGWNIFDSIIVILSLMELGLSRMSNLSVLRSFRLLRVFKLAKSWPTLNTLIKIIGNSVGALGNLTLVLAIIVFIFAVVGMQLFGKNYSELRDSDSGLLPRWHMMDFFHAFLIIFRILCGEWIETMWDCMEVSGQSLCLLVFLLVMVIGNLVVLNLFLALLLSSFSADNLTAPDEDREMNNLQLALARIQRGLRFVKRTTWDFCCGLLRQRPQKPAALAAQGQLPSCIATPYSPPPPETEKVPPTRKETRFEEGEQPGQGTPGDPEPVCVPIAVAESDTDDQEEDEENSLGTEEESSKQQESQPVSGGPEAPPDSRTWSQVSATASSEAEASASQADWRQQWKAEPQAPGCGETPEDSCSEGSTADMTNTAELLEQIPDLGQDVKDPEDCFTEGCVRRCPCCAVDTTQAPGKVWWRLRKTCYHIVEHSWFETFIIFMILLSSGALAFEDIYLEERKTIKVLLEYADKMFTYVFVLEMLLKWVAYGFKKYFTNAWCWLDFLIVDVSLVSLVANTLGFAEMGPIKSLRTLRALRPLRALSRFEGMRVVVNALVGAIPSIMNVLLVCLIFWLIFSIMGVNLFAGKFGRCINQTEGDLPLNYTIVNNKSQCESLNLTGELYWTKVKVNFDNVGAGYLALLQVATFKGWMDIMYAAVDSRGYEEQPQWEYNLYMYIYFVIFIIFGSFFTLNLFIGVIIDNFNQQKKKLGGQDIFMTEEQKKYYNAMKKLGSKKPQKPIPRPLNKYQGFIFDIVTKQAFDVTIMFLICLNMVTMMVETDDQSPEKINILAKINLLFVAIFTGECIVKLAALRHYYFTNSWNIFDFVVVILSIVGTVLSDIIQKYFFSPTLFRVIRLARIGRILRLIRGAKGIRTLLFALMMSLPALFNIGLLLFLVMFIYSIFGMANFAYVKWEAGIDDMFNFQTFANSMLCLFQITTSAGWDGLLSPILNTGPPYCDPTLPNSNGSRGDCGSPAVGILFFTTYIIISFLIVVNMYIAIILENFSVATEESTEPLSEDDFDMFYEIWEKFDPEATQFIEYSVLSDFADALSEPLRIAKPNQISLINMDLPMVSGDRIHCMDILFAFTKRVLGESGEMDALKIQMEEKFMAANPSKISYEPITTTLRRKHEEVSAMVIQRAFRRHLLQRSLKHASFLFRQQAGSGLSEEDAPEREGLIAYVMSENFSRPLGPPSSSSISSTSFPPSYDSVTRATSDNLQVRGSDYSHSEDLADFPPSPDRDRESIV

For the molecule `C[C@](O)(CS(N)(=O)=O)c1cccc(-c2nnn(Cc3cc(OC(F)(F)F)ccc3F)n2)n1` [Modification A-1, (R)-2-(6-(2-(2-fluoro-5-(trifluoromethoxy)benzyl)-2H-tetrazol-5-yl)pyridin-2-yl)-2-hydroxypropane-1-sulfonamide], in data set [1] (at 90% relative humidity), the reversible water uptake result is on record as “about 0.10%”. The hygroscopicity entry in data set [1] is listed as “not hygroscopic”.

The IC50 is the midpoint of a concentration-inhibition curve. Take `CC(C(C)(O)c1cccc(-c2nnn(Cc3cc(OC(F)(F)F)ccc3F)n2)n1)S(N)(=O)=O` (single isomer, unassigned) [Example 14, (2R or 2S,3R or 3S)-3-(6-(2-(2-fluoro-5-(trifluoromethoxy)benzyl)-2H-tetrazol-5-yl)pyridin-2-yl)-3-hydroxybutane-2-sulfonamide]: the IC50 was 4 µM at human Nav1.5 [2], more than 30 µM against human Nav1.5 [3] and 15 µM on human Nav1.5 [4].

`C[C@](O)(CS(N)(=O)=O)c1cccc(-c2nnn(Cc3cc(OC(F)(F)F)ccc3F)n2)n1` [Example 1, (R)-2-(6-(2-(2-fluoro-5-(trifluoromethoxy)benzyl)-2H-tetrazol-5-yl)pyridin-2-yl)-2-hydroxypropane-1-sulfonamide]: the IC50 is 3.1 µM on human Nav1.5 [2], 22 µM against human Nav1.5 [3] and 19 µM at human Nav1.5 [4].

As for `C[C@](O)(CS(N)(=O)=O)c1cccc(-c2nnn(Cc3cc(OC(F)(F)F)ccc3F)n2)n1` [Modification A-2, (R)-2-(6-(2-(2-fluoro-5-(trifluoromethoxy)benzyl)-2H-tetrazol-5-yl)pyridin-2-yl)-2-hydroxypropane-1-sulfonamide], in data set [1], the hygroscopicity entry is “hygroscopic and shows gel formation at 70% relative humidity and above”.

As for `CC(O)(CS(N)(=O)=O)c1ccc(Cl)c(-c2nnn(Cc3cc(OC(F)(F)F)ccc3F)n2)c1` (single isomer, unassigned) [Example 8, (R or S)-2-(4-chloro-3-(2-(2-fluoro-5-(trifluoromethoxy)benzyl)-2H-tetrazol-5-yl)phenyl)-2-hydroxypropane-1-sulfonamide], the concentration for half-maximal inhibition (IC50) on human Nav1.5 [2] was 1.3 µM; against human Nav1.5 [3] it was more than 30 µM; on human Nav1.5 [4], 28 µM.

As for `CC(O)(CS(N)(=O)=O)c1cc(F)cc(-c2nnn(Cc3cc(OC(F)(F)F)ccc3F)n2)c1` (single isomer, unassigned) [Example 23, (R or S)-2-(3-fluoro-5-(2-(2-fluoro-5-(trifluoromethoxy)benzyl)-2H-tetrazol-5-yl)phenyl)-2-hydroxypropane-1-sulfonamide], the IC50 on human Nav1.5 [2] is 5.6 µM; against human Nav1.5 [3], more than 30 µM; at human Nav1.5 [4], more than 30 µM.

As for `CC(O)(CS(N)(=O)=O)c1cccc(-c2nnn(Cc3cc(OC4CC4)ccc3F)n2)n1` (single isomer, unassigned) [Example 47, (R or S)-2-(6-(2-(5-cyclopropoxy-2-fluorobenzyl)-2H-tetrazol-5-yl)pyridin-2-yl)-2-hydroxypropane-1-sulfonamide], the values for the IC50 on human Nav1.5 [2], at human Nav1.5 [3] and on human Nav1.5 [4] were 3.9 µM, 27 µM and 13 µM, respectively.

Take `CC(O)(CS(N)(=O)=O)c1ccc(Cl)c(-c2nnn(Cc3cc(OC(F)(F)F)ccc3F)n2)c1` (single isomer, unassigned) [Example 7, (R or S)-2-(4-chloro-3-(2-(2-fluoro-5-(trifluoromethoxy)benzyl)-2H-tetrazol-5-yl)phenyl)-2-hydroxypropane-1-sulfonamide]: the IC50 at human Nav1.5 [2] is 1.3 µM; against human Nav1.5 [3] it was 28 µM; on human Nav1.5 [4] it was 15 µM.

As to `CC(O)(CS(N)(=O)=O)c1cccc(-c2nnn(Cc3cc(OC(F)(F)F)ccc3F)n2)c1F` (single isomer, unassigned) [Example 12, (R or S)-2-(2-fluoro-3-(2-(2-fluoro-5-(trifluoromethoxy)benzyl)-2H-tetrazol-5-yl)phenyl)-2-hydroxypropane-1-sulfonamide], the IC50 turned out to be 4.2 µM on human Nav1.5 [2], 10 µM on human Nav1.5 [3] and 5.2 µM on human Nav1.5 [4].

Regarding `CC(C(C)(O)c1cccc(-c2nnn(Cc3cc(OC(F)(F)F)ccc3F)n2)n1)S(N)(=O)=O` (single isomer, unassigned) [Example 16, (2R or 2S, 3R or 3S)-3-(6-(2-(2-fluoro-5-(trifluoromethoxy)benzyl)-2H-tetrazol-5-yl)pyridin-2-yl)-3-hydroxybutane-2-sulfonamide], the figures for the IC50 at human Nav1.5 [2], at human Nav1.5 [3] and at human Nav1.5 [4] were 2.8 µM, 16 µM and 4.8 µM, respectively.

On to `CC(O)(CS(N)(=O)=O)c1ccc(F)c(-c2nnn(Cc3cc(OC(F)(F)F)ccc3F)n2)c1` (single isomer, unassigned) [Example 9, (R or S)-2-(4-fluoro-3-(2-(2-fluoro-5-(trifluoromethoxy)benzyl)-2H-tetrazol-5-yl)phenyl)-2-hydroxypropane-1-sulfonamide], for which the concentration for half-maximal inhibition (IC50) on human Nav1.5 [2] is 4.1 µM; against human Nav1.5 [3], more than 30 µM; at human Nav1.5 [4], more than 30 µM.

For `CC(O)(CS(N)(=O)=O)c1nc(-c2nnn(Cc3cc(OC(F)(F)F)ccc3F)n2)ccc1F` (single isomer, unassigned) [Example 44, (R or S)-2-(3-fluoro-6-(2-(2-fluoro-5-(trifluoromethoxy)benzyl)-2H-tetrazol-5-yl)pyridin-2-yl)-2-hydroxypropane-1-sulfonamide], the IC50 at human Nav1.5 [2] was 4.6 µM; on human Nav1.5 [3], more than 30 µM; at human Nav1.5 [4] it was 19 µM.

For the molecule `C[C@](O)(CS(N)(=O)=O)c1cccc(-c2nnn(Cc3cc(OC(F)(F)F)ccc3F)n2)n1` [Modification A-3, (R)-2-(6-(2-(2-fluoro-5-(trifluoromethoxy)benzyl)-2H-tetrazol-5-yl)pyridin-2-yl)-2-hydroxypropane-1-sulfonamide], the hygroscopicity result in data set [1] was “hygroscopic and shows gel formation at 70% relative humidity and above”.

As for `CC(O)(CS(N)(=O)=O)c1cccc(-c2ncn(Cc3cc(OC(F)(F)F)ccc3F)n2)n1` (racemic) [Rac-55 + 56, 2-(6-(1-(2-fluoro-5-(trifluoromethoxy)benzyl)-1H-1,2,4-triazol-3-yl)pyridin-2-yl)-2-hydroxypropane-1-sulfonamide], the 50% inhibitory concentration (IC50) on human Nav1.5 [2] is 4.5 µM; at human Nav1.5 [3] it was more than 30 µM; at human Nav1.5 [4], 17 µM.

As to `CC(O)(CS(N)(=O)=O)c1ccc(F)c(-c2nnn(Cc3cc(OC(F)(F)F)ccc3F)n2)c1` (single isomer, unassigned) [Example 10, (R or S)-2-(4-fluoro-3-(2-(2-fluoro-5-(trifluoromethoxy)benzyl)-2H-tetrazol-5-yl)phenyl)-2-hydroxypropane-1-sulfonamide], the IC50 on human Nav1.5 [2] was 1 µM; on human Nav1.5 [3], more than 30 µM; at human Nav1.5 [4], 11 µM.

(Values after patent US20250034108A1, “SODIUM CHANNEL BLOCKERS” (NOVARTIS AG, priority 2023, published 2025).)
